{
  "source": "patent US6914045B2",
  "about": "“Glycopeptide antibiotics” (Wyeth Holdings Corporation, priority 2001, dated 2005)",
  "key": {"[1]": {"experiment": "anatomic pathology (histopathology of heart and kidney) in mice", "format": "in vivo", "conditions": "CD-1 mice, 20 mg/kg intravenously daily for 9 days, necropsy day 10, microscopic histopathology", "experimental": "Samples of tissues from necropsied mice were formalin-fixed, paraffin-embedded, sectioned, stained with hematoxylin and eosin, and examined microscopically. Histopathologic findings were recorded. These findings were subjectively graded on a scale corresponding to slight, mild, moderate, marked and severe as compared to untreated controls."}, "Escherichia coli": {"tested_on": "Escherichia coli", "experiment": "in vitro antibacterial evaluation, MIC by broth dilution", "format": "cell-based", "conditions": "18 hours at 35° C.", "summary_of_the_method": "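Broth dilution MIC per NCCLS M7-A2 in Mueller-Hinton II medium, inoculum 5×10^5 CFU/mL, antibiotic range 64-0.06 μg/mL. MIC taken as lowest concentration inhibiting growth.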"}, "Enterococcus sp.": {"tested_on": "Enterococcus sp.", "experiment": "in vitro antibacterial evaluation, MIC by broth dilution", "format": "cell-based", "conditions": "broth dilution, 18 hours at 35° C.", "summary_of_the_method": "(§1)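 MIC = lowest antibiotic concentration preventing visible growth; inoculum 5×10^5 CFU/mL; drug range 64-0.06 μg/mL; Muller-Hinton II […]; NCCLS M7-A2 guidance.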"}, "Staphylococcus sp.": {"tested_on": "Staphylococcus sp.", "experiment": "in vitro antibacterial evaluation, MIC by broth dilution", "format": "cell-based", "conditions": "broth dilution, 18 hours at 35° C.", "summary_of_the_method": "as §1"}, "Streptococcus sp.": {"tested_on": "Streptococcus sp.", "experiment": "in vitro antibacterial evaluation, MIC by broth dilution", "format": "cell-based", "conditions": "broth dilution, 18 hours at 35° C.", "summary_of_the_method": "as §1"}, "[2]": {"tested_on": "Staphylococcus aureus-SMITH (GC 4543)", "experiment": "acute lethal infection in mice", "format": "in vivo", "conditions": "acute lethal infection, female CD-1 mice, intraperitoneal challenge, intravenous 30 min. after infection, 7 day survival", "summary_of_the_method": "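Survival at 7 days, pooled from three independent tests, yields ED50 values. Treatment is intravenous, 30 min after ip infection of female CD-1 mice, using an inoculum lethal to untreated controls within 24-48 hr.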"}},
  "data": [
    {"compound": "CC(c1ccccc1)C1NC(=O)CNC(=O)C(CO)NC(=O)C(C(O)C2CN(Cc3ccc4ccccc4c3)C(=N)N2C2OC(CO)C(O)C(O)C2O)NC(=O)C(C(O)C2CNC(=N)N2)NC(=O)C(Cc2ccc(OC3OC(CO)C(OC4OC5COC6(OC5C(O)C4O)C4CC5CC(C4)CC6C5)C(O)C3O)cc2)NC1=O", "note": "(stereo not drawn) [Example 78, Cyclo[glycyl-β-methylphenylalanyl-O-[4-O-[4,6-O-(2-adamantylidene)hexopyranosyl]hexopyranosyl]tyrosyl-3-(2-iminoimidazolidin-4-yl)seryl-3-[3-hexopyranosyl-2-imino-1-(2-naphthylmethyl)-imidazolidin-4-yl]serylseryl]]", "values": [
      {"measurement": "Anatomical Pathology (Day 10), Heart", "setting": "[1]", "result": 0},
      {"measurement": "Anatomical Pathology (Day 10), Kidney", "setting": "[1]", "result": "++"},
      {"measurement": "MIC Escherichia coli (ATCC 25922)", "setting": "Escherichia coli", "result": 128, "unit": "µg/mL"},
      {"measurement": "MIC Escherichia coli (GC 4559)", "setting": "Escherichia coli", "result": 128, "unit": "µg/mL"},
      {"measurement": "MIC Escherichia coli (GC 4560)", "setting": "Escherichia coli", "result": 4, "unit": "µg/mL"},
      {"measurement": "MIC Enterococcus avium (GC 4558)", "setting": "Enterococcus sp.; Enterococcus avium (GC 4558)", "result": 4, "unit": "µg/mL"},
      {"measurement": "MIC Enterococcus faecalis (ATCC 29212)", "setting": "Enterococcus sp.; Enterococcus faecalis (ATCC 29212)", "result": 8, "unit": "µg/mL"},
      {"measurement": "MIC Enterococcus faecalis (GC 4552)", "setting": "Enterococcus sp.; Enterococcus faecalis (GC 4552)", "result": 8, "unit": "µg/mL"},
      {"measurement": "MIC Enterococcus faecalis (GC 4553)", "setting": "Enterococcus sp.; Enterococcus faecalis (GC 4553)", "result": 8, "unit": "µg/mL"},
      {"measurement": "MIC Enterococcus faecalis (GC 4554)", "setting": "Enterococcus sp.; Enterococcus faecalis (GC 4554)", "result": 16, "unit": "µg/mL"},
      {"measurement": "MIC Enterococcus faecalis (GC 6189)", "setting": "Enterococcus sp.; Enterococcus faecalis (GC 6189)", "result": 16, "unit": "µg/mL"},
      {"measurement": "MIC Enterococcus faecium (GC 2243)", "setting": "Enterococcus sp.; Enterococcus faecium (GC 2243)", "result": 8, "unit": "µg/mL"},
      {"measurement": "MIC Enterococcus faecium (GC 4556)", "setting": "Enterococcus sp.; Enterococcus faecium (GC 4556)", "result": 16, "unit": "µg/mL"},
      {"measurement": "MIC Enterococcus faecium (GC 4557)", "setting": "Enterococcus sp.; Enterococcus faecium (GC 4557)", "result": 2, "unit": "µg/mL"},
      {"measurement": "MIC Enterococcus avium (GC 4558)", "setting": "Enterococcus sp.", "result": 4, "unit": "µg/mL"},
      {"measurement": "MIC Enterococcus faecalis (ATCC 29212)", "setting": "Enterococcus sp.", "result": 8, "unit": "µg/mL"},
      {"measurement": "MIC Enterococcus faecalis (GC 2242)", "setting": "Enterococcus sp.", "result": 16, "unit": "µg/mL"},
      {"measurement": "MIC Enterococcus faecalis (GC 2691)", "setting": "Enterococcus sp.", "result": 16, "unit": "µg/mL"},
      {"measurement": "MIC Enterococcus faecalis (GC 3059)", "setting": "Enterococcus sp.", "result": 16, "unit": "µg/mL"},
      {"measurement": "MIC Enterococcus faecalis (GC 4552)", "setting": "Enterococcus sp.", "result": 8, "unit": "µg/mL"},
      {"measurement": "MIC Enterococcus faecalis (GC 4553)", "setting": "Enterococcus sp.", "result": 8, "unit": "µg/mL"},
      {"measurement": "MIC Enterococcus faecalis (GC 4554)", "setting": "Enterococcus sp.", "result": 16, "unit": "µg/mL"},
      {"measurement": "MIC Enterococcus faecalis (GC 6189)", "setting": "Enterococcus sp.", "result": 16, "unit": "µg/mL"},
      {"measurement": "MIC Enterococcus faecium (GC 2243)", "setting": "Enterococcus sp.", "result": 8, "unit": "µg/mL"},
      {"measurement": "MIC Enterococcus faecium (GC 4556)", "setting": "Enterococcus sp.", "result": 16, "unit": "µg/mL"},
      {"measurement": "MIC Enterococcus faecium (GC 4557)", "setting": "Enterococcus sp.", "result": 2, "unit": "µg/mL"},
      {"measurement": "MIC Enterococcus faecalis (GC 2242)", "setting": "Enterococcus sp.; strain GC 2242", "result": 16, "unit": "µg/mL"},
      {"measurement": "MIC Enterococcus faecalis (GC 2691)", "setting": "Enterococcus sp.; strain GC 2691", "result": 16, "unit": "µg/mL"},
      {"measurement": "MIC Enterococcus faecalis (GC 3059)", "setting": "Enterococcus sp.; strain GC 3059", "result": 16, "unit": "µg/mL"},
      {"measurement": "MIC Staphylococcus aureus (ATCC 29213)", "setting": "Staphylococcus sp.; strain ATCC 29213", "result": 8, "unit": "µg/mL"},
      {"measurement": "MIC Staphylococcus aureus (GC 1131)", "setting": "Staphylococcus sp.; strain GC 1131", "result": 8, "unit": "µg/mL"},
      {"measurement": "MIC Staphylococcus aureus (GC 3051)", "setting": "Staphylococcus sp.; strain GC 3051", "result": 8, "unit": "µg/mL"},
      {"measurement": "MIC Staphylococcus aureus (GC 3053)", "setting": "Staphylococcus sp.; strain GC 3053", "result": 8, "unit": "µg/mL"},
      {"measurement": "MIC Staphylococcus aureus (GC 4541)", "setting": "Staphylococcus sp.; strain GC 4541", "result": 4, "unit": "µg/mL"},
      {"measurement": "MIC Staphylococcus aureus (GC 4542)", "setting": "Staphylococcus sp.; strain GC 4542", "result": 8, "unit": "µg/mL"},
      {"measurement": "MIC Staphylococcus aureus-SMITH (GC 4543)", "setting": "Staphylococcus sp.; strain GC 4543", "result": 4, "unit": "µg/mL"},
      {"measurement": "MIC Staphylococcus aureus (GC 4544)", "setting": "Staphylococcus sp.; strain GC 4544", "result": 8, "unit": "µg/mL"},
      {"measurement": "MIC Staphylococcus aureus (GC 4545)", "setting": "Staphylococcus sp.; strain GC 4545", "result": 8, "unit": "µg/mL"},
      {"measurement": "MIC Staphylococcus haemolyticus (GC 4546)", "setting": "Staphylococcus sp.; strain GC 4546", "result": 4, "unit": "µg/mL"},
      {"measurement": "MIC Coagulase Negative Staphylococcus (GC 4547)", "setting": "Staphylococcus sp.; strain GC 4547", "result": 4, "unit": "µg/mL"},
      {"measurement": "MIC Coagulase Negative Staphylococcus (GC 4548)", "setting": "Staphylococcus sp.; strain GC 4548", "result": 4, "unit": "µg/mL"},
      {"measurement": "MIC Coagulase Negative Staphylococcus (GC 4549)", "setting": "Staphylococcus sp.; strain GC 4549", "result": 8, "unit": "µg/mL"},
      {"measurement": "MIC Coagulase Negative Staphylococcus (GC 4551)", "setting": "Staphylococcus sp.; strain GC 4551", "result": 8, "unit": "µg/mL"},
      {"measurement": "MIC Coagulase Negative Staphylococcus (GC 6257)", "setting": "Staphylococcus sp.; strain GC 6257", "result": 2, "unit": "µg/mL"},
      {"measurement": "MIC Streptococcus agalactiae (GC 4564)", "setting": "Streptococcus sp.", "result": 1, "unit": "µg/mL"},
      {"measurement": "MIC Streptococcus pneumoniae (ATCC 6301)", "setting": "Streptococcus sp.", "result": 1, "unit": "µg/mL"},
      {"measurement": "MIC Streptococcus pneumoniae (GC 1894)", "setting": "Streptococcus sp.", "result": 0.25, "unit": "µg/mL"},
      {"measurement": "MIC Streptococcus pneumoniae (GC 4565)", "setting": "Streptococcus sp.", "result": 2, "unit": "µg/mL"},
      {"measurement": "MIC Streptococcus pyogenes (GC 4563)", "setting": "Streptococcus sp.", "result": 0.5, "unit": "µg/mL"},
      {"measurement": "MIC Streptococcus pneumoniae (ATCC 6301)", "setting": "Streptococcus sp.; strain ATCC 6301", "result": 1, "unit": "µg/mL"},
      {"measurement": "MIC Streptococcus pneumoniae (GC 1894)", "setting": "Streptococcus sp.; strain GC 1894", "result": 0.25, "unit": "µg/mL"},
      {"measurement": "MIC Streptococcus pyogenes (GC 4563)", "setting": "Streptococcus sp.; strain GC 4563", "result": 0.5, "unit": "µg/mL"},
      {"measurement": "MIC Streptococcus agalactiae (GC 4564)", "setting": "Streptococcus sp.; strain GC 4564", "result": 1, "unit": "µg/mL"},
      {"measurement": "MIC Streptococcus pneumoniae (GC 4565)", "setting": "Streptococcus sp.; strain GC 4565", "result": 2, "unit": "µg/mL"},
      {"measurement": "median effective dose (ED50), Staphylococcus aureus-SMITH (GC 4543)", "setting": "[2]", "result": 2, "unit": "mg/kg"}
    ]}
  ]
}
